Broadly, the IC50 is the concentration that gives 50% inhibition.

The test system of one data set is PC3. The data set can be described thus: cells. The data set is classed as cell-based. As to conditions: Homo sapiens, PC-3, 48 h, read-out: IC50, PC3.
The next data set has as its system MCF-7. Briefly: cells. Format: cell-based, human. Particulars: for IC50: Homo sapiens, MCF7, 48 h, read-out: IC50, MCF-7.
Another data set deals with T98G. The data set can be described thus: cells. Particulars: Homo sapiens, 48 h, read-out: IC50, T98G. Format: cell-based.
The next data set concerns A375. The data set can be described thus: cells. Particulars: Homo sapiens, A-375, 48 h, read-out: IC50, A375. The data set is classed as cell-based.
The test system of the next data set is WI38. Briefly: cells. The data set is classed as cell-based. As to conditions: Homo sapiens, WI-38, 48 h, read-out: IC50, WI38.
The subject of data set [1] is Staphylococcus aureus ATCC 6538P FDA 209P (Sa). Briefly: Antimicrobial serial microdilution, Sa. The data set is classed as cell-based. Particulars: for MIC / MBC: Staphylococcus aureus; for MIC: read-out: Minimum Inhibitory Concentration (MIC), Sa; for MBC: read-out: Minimum bactericidal and fungicidal concentrations (MBC), (MFC), Sa. For orientation: In broth dilution the organism is exposed to a series of concentrations in liquid medium.

Data set [2] deals with Bacillus cereus ATCC 10702 (Bc). Briefly: Antimicrobial serial microdilution, Bc. Format: cell-based. As to conditions: for MIC: ATCC10702, read-out: Minimum Inhibitory Concentration (MIC), Bc.
The test system of data set [3] is Enterococcus faecalis ATCC 29212 (Ef). The data set can be described thus: Antimicrobial serial microdilution, Ef. The data set is classed as cell-based. As to conditions: for MIC: Enterococcus faecalis, ATCC29212, read-out: Minimum Inhibitory Concentration (MIC), Ef.
The next data set deals with MRSA-1. The data set can be described thus: Antimicrobial serial microdilution, MRSA-1. Format: cell-based, Staphylococcus aureus. As to conditions: for MIC / MBC: Staphylococcus aureus, MRSA; for MIC: read-out: Minimum Inhibitory Concentration (MIC), MRSA-1; for MBC: read-out: Minimum bactericidal and fungicidal concentrations (MBC), (MFC), MRSA-1.
Another data set concerns MRSA-2. Briefly: Antimicrobial serial microdilution, MRSA-2. As to conditions: for MIC: read-out: Minimum Inhibitory Concentration (MIC), MRSA-2. The data set is classed as cell-based, Staphylococcus aureus.
Another data set concerns M-HeLa cells. The data set can be described thus: Intracellular ROS, CellROX Deep Red flow cytometry. The data set is classed as cell-based, human. Particulars: concentration equal to IC50 cytotoxicity on M-HeLa, 48 h; result in words. An excerpt:
Apoptosis can be induced in various ways, including an increase in the production of reactive oxygen species (ROS) in the cell, with subsequent oxidative stress and destruction of membrane lipids, proteins and nucleic acids. Thus, chemical compounds that disturb the redox balance and lead to the production and accumulation of ROS are potential agents for targeting the transformed cells. To understand the possible synergy between the different components of these hybrid agents, we compared the ROS production for compounds 4c, 5d, starting phenols 2c, 2d and furoxan 3 at the concentration of IC50 cytotoxicity on M-HeLa cells (Figure 4). A significant increase in CellROX® Deep Red fluorescence intensity indicates an increase in ROS production.
Detection of Intracellular ROS. […] ROS generation was investigated using flow cytometry assay and CellROX® Deep Red flow cytometry kit. For this M-HeLa cells were harvested at 2000 rpm for 5 min and then washed twice with ice-cold PBS, followed by resuspension in 0.1 mL of medium without FBS, to which was added 0.2 μL of CellROX® Deep Red and incubated at 37 °C for 30 min. After three times washing the cells and suspending them in PBS, the production of ROS in the cells was immediately monitored using flow cytometer (Guava easy Cyte, Merck, Rahway, NJ, USA).
In general terms: Flow cytometry measures light scatter and fluorescence of single cells or particles in a stream.

Data set [4] has as its system HuTu 80, MCF-7 and human cervical carcinoma cell lines. Briefly: cells. The data set is classed as cell-based. As to conditions: 120 h, read-out: IC50 range over HuTu 80, MCF-7 and human cervical carcinoma lines.
The test system of data set [5] is M-HeLa.
The test system of the next data set is HuTu 80. Briefly: cells. As to conditions: Homo sapiens, HuTu80, 48 h, read-out: IC50, HuTu 80.
A further data set concerns PANC-1. The data set can be described thus: cells. As to conditions: Homo sapiens, PANC-1, 48 h, read-out: IC50, PANC-1.
In data set [6] the test system is M-HeLa. The data set can be described thus: cells. As to conditions: Homo sapiens, 48 h, read-out: IC50, M-HeLa.
The next data set concerns A549. The data set can be described thus: cells. Particulars: Homo sapiens, A549, 48 h, read-out: IC50, A549.
For a further data set, the system named is Chang Liver. The data set can be described thus: cells. As to conditions: Homo sapiens, 48 h, read-out: IC50, Chang Liver.
The conditions of data set [7]: 500 ng/mL spike, sampled 5, 15, 30 min, 1 and 2 hours; result in words.

≈ marks a conversion by molar mass, not a printed value.

`CC(C)OP(=O)(OC(C)C)C(c1cc(C(C)(C)C)c(O)c(C(C)(C)C)c1)c1ccc(Nc2c([N+](=O)[O-])cc([N+](=O)[O-])c3no[n+]([O-])c23)nc1N` (centres unmarked) [4c, 7-((6-amino-5-((3,5-di-tert-butyl-4-hydroxyphenyl)(diisopropoxyphosphoryl)methyl)pyridin-2-yl)amino)-4,6-dinitrobenzo[c][1,2,5]oxadiazole 1-oxide]: the concentration for half-maximal inhibition (IC50) with PC3 is 1.2 ± 1 µM; in the data set with MCF-7, 1.1 ± 0.1 µM; with T98G, 2.2 ± 0.1 µM; with A375 it was 2.9 ± 0.2 µM; in the data set on WI38 it was 2 ± 0.1 µM; in data set [4], 0.9 to 5.9 µM. In addition, the half-maximal inhibitory concentration (IC50) with HuTu 80 was 0.9 ± 0.07 µM; in the data set with PANC-1, 11.2 ± 0.9 µM; with M-HeLa [6] it was 0.9 ± 0.07 µM; in the data set with A549, 0.9 ± 0.08 µM; with Chang Liver, 2.1 ± 0.7 µM. Further, the “Times more active than the starting SHP, MCF-7” value with MCF-7 turned out to be 20 times. The “Minimum Inhibitory Concentration (MIC), Sa” value in data set [1] is reported as “-”. For the same compound, the “Minimum Inhibitory Concentration (MIC), Bc” value in data set [2] is on record as “-”. Moreover, the “Minimum Inhibitory Concentration (MIC), Ef” value in [3] was “-”. Moreover, the “Minimum Inhibitory Concentration (MIC), MRSA-1” value with MRSA-1 (serial microdilution, strain resistant to β-lactams and fluoroquinolones) was “-”. Also, the “Minimum Inhibitory Concentration (MIC), MRSA-2” value in the data set on MRSA-2 (serial microdilution, strain resistant only to β-lactams) was “-”. In the data set with M-HeLa cells, the “ROS production (CellROX Deep Red fluorescence intensity)” value is “ROS production significantly exceeds that for the original phenol 2c and furoxan 3”. Also, the “Times more active than the starting SHP, M-HeLa” value with M-HeLa [5] was determined as 40 times.

For `COP(=O)(OC)C(c1cc(C(C)(C)C)c(O)c(C(C)(C)C)c1)c1ccc(Nc2c([N+](=O)[O-])cc([N+](=O)[O-])c3no[n+]([O-])c23)nc1Nc1c([N+](=O)[O-])cc([N+](=O)[O-])c2no[n+]([O-])c12` (centres unmarked) [5a, 7,7’-((3-((3,5-di-tert-butyl-4-hydroxyphenyl)(dimethoxyphosphoryl)methyl)pyridine-2,6-diyl)bis(azanediyl))bis(4,6-dinitrobenzo[c][1,2,5]oxadiazole 1-oxide)], the half-inhibitory concentration (IC50) with PC3 stood at 7.7 ± 0.6 µM; in the data set with MCF-7, 12.1 ± 1.1 µM; in the data set on T98G, 26.8 ± 2.2 µM; in the data set with A375 it was 21.6 ± 1.8 µM; in the data set with WI38, 11.4 ± 0.9 µM; with HuTu 80, 11 ± 0.9 µM. Besides, the IC50 was 13.5 ± 1.1 µM in the data set with PANC-1, 7.7 ± 0.6 µM in the data set with M-HeLa [6], 48.4 ± 3.5 µM in the data set on A549 and 15.1 ± 1.7 µM in the data set on Chang Liver. Besides, the MIC in data set [1] was found to be 125 ± 11 µg/mL (≈ 141 µM); in data set [2] (Bacillus cereus), 62.5 ± 5.3 µg/mL (≈ 70.7 µM); in data set [3] it was 125 ± 10 µg/mL (≈ 141 µM); in the data set with MRSA-1 it was 250 ± 20 µg/mL (≈ 283 µM); in the data set on MRSA-2 (Staphylococcus aureus, MRSA) it was 250 ± 20 µg/mL (≈ 283 µM). In addition, the MBC in [1] amounted to 250 ± 19 µg/mL (≈ 283 µM); in the data set with MRSA-1, 250 ± 21 µg/mL (≈ 283 µM). Further, the “Minimum bactericidal and fungicidal concentrations (MBC), (MFC), Bc” value in data set [2] is recorded as “-”. For the same compound, the “Minimum bactericidal and fungicidal concentrations (MBC), (MFC), Ef” value in data set [3] is “-”. Moreover, in the data set on MRSA-2, the “Minimum bactericidal and fungicidal concentrations (MBC), (MFC), MRSA-2” value is recorded as “-”.

Take `CC(C)OP(=O)(OC(C)C)C(c1cc(C(C)(C)C)c(O)c(C(C)(C)C)c1)c1ccc(Nc2c([N+](=O)[O-])cc([N+](=O)[O-])c3no[n+]([O-])c23)nc1Nc1c([N+](=O)[O-])cc([N+](=O)[O-])c2no[n+]([O-])c12` (centres unmarked) [5c, 7,7’-((3-((3,5-di-tert-butyl-4-hydroxyphenyl)(diisopropoxyphosphoryl)methyl)pyridine-2,6-diyl)bis(azanediyl))bis(4,6-dinitrobenzo[c][1,2,5]oxadiazole 1-oxide)]: the IC50 is 6.8 ± 0.5 µM in the data set with PC3; 4.5 ± 0.4 µM in the data set on MCF-7; 7.7 ± 0.6 µM with T98G; 9 ± 0.8 µM in the data set with A375; 5 ± 0.4 µM with WI38; 3.9 ± 0.3 µM in the data set with HuTu 80. Besides, the IC50 in the data set on PANC-1 is 5 ± 0.3 µM; in the data set with M-HeLa [6], 2.4 ± 0.2 µM; in the data set on A549 it was 7.7 ± 0.6 µM; in the data set on Chang Liver it was 4.1 ± 0.8 µM. In addition, the “Minimum bactericidal and fungicidal concentrations (MBC), (MFC), Sa” value in [1] is on record as “-”. Besides, the MIC in [1] worked out at 31.3 ± 2.3 µg/mL (≈ 33.3 µM); in data set [2] (Bacillus cereus), 31.3 ± 2.5 µg/mL (≈ 33.3 µM); in data set [3], 62.5 ± 5.3 µg/mL (≈ 66.5 µM); with MRSA-1 it was 62.5 ± 5.5 µg/mL (≈ 66.5 µM); in the data set on MRSA-2 (Staphylococcus aureus, MRSA), 250 ± 20 µg/mL (≈ 266 µM). The MBC in data set [2] (Bacillus cereus, ATCC10702, read-out: Minimum bactericidal and fungicidal concentrations (MBC), (MFC), Bc) turned out to be 250 ± 20 µg/mL (≈ 266 µM). Also, the “Minimum bactericidal and fungicidal concentrations (MBC), (MFC), Ef” value in data set [3] was “-”. In addition, the “Minimum bactericidal and fungicidal concentrations (MBC), (MFC), MRSA-1” value with MRSA-1 was “-”. For the same compound, the “Minimum bactericidal and fungicidal concentrations (MBC), (MFC), MRSA-2” value with MRSA-2 is “-”.

Turning to `CC(C)(C)c1cc(C(c2ccc(Nc3c([N+](=O)[O-])cc([N+](=O)[O-])c4no[n+]([O-])c34)nc2Nc2c([N+](=O)[O-])cc([N+](=O)[O-])c3no[n+]([O-])c23)P(=O)(Oc2ccccc2)Oc2ccccc2)cc(C(C)(C)C)c1O` (centres unmarked) [5d, 7,7’-((3-((3,5-di-tert-butyl-4-hydroxyphenyl)(diphenoxyphosphoryl)methyl)pyridine-2,6-diyl)bis(azanediyl))bis(4,6-dinitrobenzo[c][1,2,5]oxadiazole 1-oxide)], the IC50 in the data set on PC3 is 5.9 ± 0.4 µM; in the data set on MCF-7 it was 2.1 µM; with T98G, 4.8 ± 0.4 µM; in the data set with A375 it was 5.9 ± 0.5 µM; in the data set with WI38, 8.4 ± 0.7 µM; in data set [4], 0.9 to 5.9 µM. Moreover, the half-maximal inhibitory concentration (IC50) with HuTu 80 came out at 4.9 ± 0.3 µM; in the data set on PANC-1 it was 2.8 µM; in the data set with M-HeLa [6], 2 µM; with A549 it was 5.2 ± 0.4 µM; with Chang Liver, 9.2 ± 1.9 µM. The “Times more active than the starting SHP, MCF-7” value with MCF-7 is 7.6 times. Also, the MIC came to 15.6 ± 1.2 µg/mL (≈ 15.5 µM) in data set [1]; 62.5 ± 5.4 µg/mL (≈ 62 µM) in [2] (Bacillus cereus); 62.5 ± 5.2 µg/mL (≈ 62 µM) in [3]; 62.5 ± 5.3 µg/mL (≈ 62 µM) in the data set on MRSA-1; 250 ± 19 µg/mL (≈ 248 µM) with MRSA-2 (Staphylococcus aureus, MRSA). The MBC in [1] turned out to be 125 ± 10 µg/mL (≈ 124 µM); in the data set with MRSA-1 it was 250 ± 20 µg/mL (≈ 248 µM); in the data set with MRSA-2 (Staphylococcus aureus, MRSA, read-out: Minimum bactericidal and fungicidal concentrations (MBC), (MFC), MRSA-2) it was 250 ± 19 µg/mL (≈ 248 µM). For the same compound, the “Minimum bactericidal and fungicidal concentrations (MBC), (MFC), Bc” value in data set [2] is recorded as “-”. Further, in [3], the “Minimum bactericidal and fungicidal concentrations (MBC), (MFC), Ef” value is on record as “-”. The “Times more active than the starting SHP, M-HeLa” value in the data set on M-HeLa [5] is listed as 3.7 times. Also, the “Biostability in whole mice blood (peak area relative to 5 min value)” value in [7] is “metabolized, but its rate is quite low”.

Source of the values: publication PMC10145285, “Diverse Biological Activity of Benzofuroxan/Sterically Hindered Phenols Hybrids” (Pharmaceuticals, 2023).
